Assay results: the NIST ThermoML archive (doi:10.1021/je0302001)
Numbers after ± are expanded uncertainties.

Assay: mn = molality of the nth substance listed, in mol/kg
Conditions: 101.3 kPa, Liquid; for viscosity: Capillary tube (Ostwald / Ubbelohde) method

**Q.** Which results are given for `O=[N+]([O-])[O-].O=[N+]([O-])[O-].[Zn+2]` [nitric acid, zinc salt] + O?
**A.** speed of sound (318.15 K, m1 = 2.344): 1633.9 ± 4.3 m/s; speed of sound (318.15 K, m1 = 2.91): 1657.1 ± 4.4 m/s; speed of sound (318.15 K, m1 = 3.472): 1678.7 ± 4.4 m/s; speed of sound (318.15 K, m1 = 4.075): 1696.7 ± 4.5 m/s; speed of sound (318.15 K, m1 = 4.817): 1717.9 ± 4.5 m/s; speed of sound (318.15 K, m1 = 5.224): 1724.7 ± 4.6 m/s; speed of sound (318.15 K, m1 = 5.797): 1732 ± 4.6 m/s; speed of sound (318.15 K, m1 = 6.34): 1735.3 ± 4.6 m/s; speed of sound (318.15 K, m1 = 6.89): 1740.7 ± 4.6 m/s; speed of sound (318.15 K, m1 = 7.349): 1740.9 ± 4.6 m/s; mass density (318.25 K, m1 = 0.6111): 1077.9 ± 0.8 kg/m3; mass density (318.25 K, m1 = 4.817): 1539 ± 1.4 kg/m3; mass density (318.3 K, m1 = 2.91): 1359.3 ± 1.2 kg/m3; mass density (318.45 K, m1 = 6.89): 1689.4 ± 1.6 kg/m3; mass density (318.6 K, m1 = 0.1329): 1009.1 ± 0.8 kg/m3; mass density (318.65 K, m1 = 4.075): 1474.2 ± 1.3 kg/m3; mass density (318.8 K, m1 = 0.6405): 1081.7 ± 0.8 kg/m3; mass density (318.8 K, m1 = 3.472): 1416.3 ± 1.2 kg/m3; mass density (318.85 K, m1 = 1.551): 1202 ± 1 kg/m3; mass density (319.05 K, m1 = 0.0875): 1002.2 ± 0.8 kg/m3; mass density (319.05 K, m1 = 0.3388): 1038.8 ± 0.8 kg/m3; mass density (319.15 K, m1 = 1.113): 1145.7 ± 0.9 kg/m3; mass density (319.2 K, m1 = 0.2466): 1025.6 ± 0.8 kg/m3; mass density (319.3 K, m1 = 6.34): 1652.5 ± 1.6 kg/m3; mass density (319.3 K, m1 = 7.764): 1740.4 ± 1.7 kg/m3; mass density (320.05 K, m1 = 5.224): 1570.1 ± 1.5 kg/m3; mass density (320.5 K, m1 = 0.6111): 1076.8 ± 0.9 kg/m3; mass density (320.6 K, m1 = 4.075): 1472.7 ± 1.3 kg/m3; mass density (320.75 K, m1 = 0.1329): 1008.1 ± 0.8 kg/m3; mass density (320.85 K, m1 = 5.8): 1612.8 ± 1.5 kg/m3; mass density (321 K, m1 = 1.258): 1163.6 ± 0.9 kg/m3; mass density (321 K, m1 = 7.349): 1714.9 ± 1.7 kg/m3; mass density (321.05 K, m1 = 2.145): 1272.2 ± 1.1 kg/m3; mass density (321.25 K, m1 = 1.113): 1144.5 ± 0.9 kg/m3; mass density (321.3 K, m1 = 0.0875): 1001.2 ± 0.8 kg/m3; mass density (321.3 K, m1 = 0.3388): 1037.8 ± 0.8 kg/m3; mass density (321.35 K, m1 = 0.2466): 1024.5 ± 0.8 kg/m3; mass density (321.4 K, m1 = 2.29): 1288.5 ± 1.1 kg/m3; mass density (321.65 K, m1 = 2.344): 1294.6 ± 1.1 kg/m3; mass density (321.7 K, m1 = 1.906): 1243.6 ± 1 kg/m3; mass density (321.75 K, m1 = 4.817): 1535.8 ± 1.4 kg/m3; mass density (321.85 K, m1 = 6.89): 1685.8 ± 1.6 kg/m3; mass density (322.05 K, m1 = 2.292): 1288.5 ± 1.1 kg/m3; mass density (322.05 K, m1 = 2.91): 1356.4 ± 1.2 kg/m3; mass density (322.4 K, m1 = 0.6111): 1075.8 ± 0.9 kg/m3; mass density (322.5 K, m1 = 3.472): 1413.3 ± 1.3 kg/m3; mass density (322.55 K, m1 = 7.764): 1736.9 ± 1.7 kg/m3; mass density (322.6 K, m1 = 6.34): 1649 ± 1.6 kg/m3; mass density (322.75 K, m1 = 1.551): 1199.5 ± 1 kg/m3; mass density (322.95 K, m1 = 0.6405): 1079.6 ± 0.9 kg/m3; viscosity (323.15 K, m1 = 0.1329): 0.58 ± 0.007 mPa·s; viscosity (323.15 K, m1 = 0.2466): 0.601 ± 0.007 mPa·s; viscosity (323.15 K, m1 = 0.3388): 0.621 ± 0.007 mPa·s; viscosity (323.15 K, m1 = 0.6111): 0.679 ± 0.008 mPa·s; viscosity (323.15 K, m1 = 0.6405): 0.686 ± 0.008 mPa·s; viscosity (323.15 K, m1 = 1.113): 0.804 ± 0.009 mPa·s; viscosity (323.15 K, m1 = 1.258): 0.853 ± 0.01 mPa·s; viscosity (323.15 K, m1 = 1.551): 0.935 ± 0.011 mPa·s; viscosity (323.15 K, m1 = 1.906): 1.077 ± 0.013 mPa·s; viscosity (323.15 K, m1 = 2.145): 1.183 ± 0.014 mPa·s; viscosity (323.15 K, m1 = 2.29): 1.245 ± 0.015 mPa·s; viscosity (323.15 K, m1 = 2.344): 1.254 ± 0.015 mPa·s; viscosity (323.15 K, m1 = 2.91): 1.537 ± 0.018 mPa·s; viscosity (323.15 K, m1 = 3.472): 1.908 ± 0.023 mPa·s; viscosity (323.15 K, m1 = 4.075): 2.349 ± 0.029 mPa·s; viscosity (323.15 K, m1 = 4.817): 3.051 ± 0.037 mPa·s; viscosity (323.15 K, m1 = 5.224): 3.464 ± 0.043 mPa·s; viscosity (323.15 K, m1 = 5.797): 4.283 ± 0.053 mPa·s; viscosity (323.15 K, m1 = 6.34): 5.066 ± 0.064 mPa·s; viscosity (323.15 K, m1 = 6.89): 6.121 ± 0.077 mPa·s; viscosity (323.15 K, m1 = 7.349): 7.071 ± 0.089 mPa·s; speed of sound (323.15 K, m1 = 0.0875): 1545.6 ± 4.1 m/s; speed of sound (323.15 K, m1 = 0.1329): 1544.6 ± 4.1 m/s; speed of sound (323.15 K, m1 = 0.2466): 1547.7 ± 4.1 m/s; speed of sound (323.15 K, m1 = 0.3388): 1551.5 ± 4.1 m/s; speed of sound (323.15 K, m1 = 0.6111): 1560.9 ± 4.1 m/s; speed of sound (323.15 K, m1 = 0.6405): 1561 ± 4.1 m/s; speed of sound (323.15 K, m1 = 1.113): 1577.8 ± 4.2 m/s; speed of sound (323.15 K, m1 = 1.258): 1585.2 ± 4.2 m/s; speed of sound (323.15 K, m1 = 1.551): 1598.3 ± 4.2 m/s; speed of sound (323.15 K, m1 = 1.906): 1611 ± 4.3 m/s; speed of sound (323.15 K, m1 = 2.145): 1622.9 ± 4.3 m/s; speed of sound (323.15 K, m1 = 2.29): 1630 ± 4.3 m/s; speed of sound (323.15 K, m1 = 2.292): 1631.1 ± 4.3 m/s; speed of sound (323.15 K, m1 = 2.344): 1628.1 ± 4.3 m/s; speed of sound (323.15 K, m1 = 2.91): 1651.1 ± 4.4 m/s; speed of sound (323.15 K, m1 = 3.472): 1675.6 ± 4.4 m/s; speed of sound (323.15 K, m1 = 4.075): 1690.4 ± 4.5 m/s; speed of sound (323.15 K, m1 = 4.817): 1707.1 ± 4.5 m/s; speed of sound (323.15 K, m1 = 5.224): 1716.7 ± 4.5 m/s; speed of sound (323.15 K, m1 = 5.797): 1723.6 ± 4.6 m/s; speed of sound (323.15 K, m1 = 6.34): 1724.9 ± 4.6 m/s; speed of sound (323.15 K, m1 = 6.89): 1729.5 ± 4.6 m/s; speed of sound (323.15 K, m1 = 7.349): 1729.7 ± 4.6 m/s; mass density (324.25 K, m1 = 7.764): 1734.9 ± 1.7 kg/m3
